Laboratory results as given in ChEMBL document CHEMBL4049409, “Structure-based discovery of LpxC inhibitors” (Bioorg Med Chem Lett, 2017).
In brackets after ≈: the same amount, converted by molar mass.

Legend:
Pseudomonas aeruginosa [1] = assay: Antibacterial activity against Pseudomonas aeruginosa isolate 839 harboring mexAB-oprM deletion mutant; assay type: functional
Escherichia coli [2] = assay: Antibacterial activity against Escherichia coli isolate 35 ATCC 25922; assay type: functional
Pseudomonas aeruginosa [3] = assay: Antibacterial activity against Pseudomonas aeruginosa isolate 44 ATCC 27853; assay type: functional
Pseudomonas aeruginosa [4] = assay: Antibacterial activity against Pseudomonas aeruginosa isolate 847; assay type: functional
[5] = molecular target: T1, UDP-3-O-acyl-N-acetylglucosamine deacetylase (Pseudomonas aeruginosa (strain ATCC 15692 / PAO1 / 1C / PRS 101 / LMG12228), UniProt P47205); assay: Inhibition of LpxC in Pseudomonas aeruginosa isolate 44 ATCC 27853
T1 sequence (P47205 whole entry): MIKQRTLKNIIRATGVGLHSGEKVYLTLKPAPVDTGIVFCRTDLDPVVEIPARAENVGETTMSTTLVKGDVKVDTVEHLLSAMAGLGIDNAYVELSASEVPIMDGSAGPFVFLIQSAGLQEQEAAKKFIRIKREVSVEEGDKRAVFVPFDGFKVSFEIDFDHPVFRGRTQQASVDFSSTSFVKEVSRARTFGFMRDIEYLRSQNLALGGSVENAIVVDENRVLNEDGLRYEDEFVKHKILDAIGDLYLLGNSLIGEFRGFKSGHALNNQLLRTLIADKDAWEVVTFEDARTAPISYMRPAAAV

[6] = molecular target: T2, UDP-3-O-acyl-N-acetylglucosamine deacetylase (Escherichia coli K-12, UniProt P0A725); assay: Inhibition of LpxC in Escherichia coli isolate 35 ATCC 25922; design: species or system Escherichia coli ATCC 25922
T2 sequence (P0A725 whole entry): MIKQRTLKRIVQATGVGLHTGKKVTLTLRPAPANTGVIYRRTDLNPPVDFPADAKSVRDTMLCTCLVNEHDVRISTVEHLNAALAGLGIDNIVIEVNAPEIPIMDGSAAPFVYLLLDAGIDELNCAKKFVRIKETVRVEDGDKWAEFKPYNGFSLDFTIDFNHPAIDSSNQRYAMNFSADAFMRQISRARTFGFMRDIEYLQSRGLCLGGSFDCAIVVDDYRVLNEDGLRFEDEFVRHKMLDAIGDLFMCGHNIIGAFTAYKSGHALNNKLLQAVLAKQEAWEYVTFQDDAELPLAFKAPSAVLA

[7] = Inhibition of LpxC in Klebsiella pneumoniae isolate 21 ATCC 4352
[8] = Half life in rat at 10 mg/kg, iv; assay type: ADME, organism-based; details: in vivo
Klebsiella pneumoniae [9] = assay: Antibacterial activity against Klebsiella pneumoniae assessed as 3 log reduction in lung bacterial burden in in-vivo lung infection model; assay type: functional
Rattus norvegicus [10] = assay: Acute toxicity in rat at 75 mg/kg using Tween-80 formulation; assay type: organism-based; details: in vivo
[11] = Bioavailability in mouse at 10 mg/kg, sc; assay type: ADME, organism-based; details: in vivo
[12] = Fraction unbound in mouse plasma at 10 uM by equilibrium dialysis method; assay type: ADME, cell-free
Rattus norvegicus [13] = assay: Dose normalized AUC in rat at 10 mg/kg, iv; assay type: ADME, organism-based; details: in vivo
[14] = Clearance in mouse at 2 mg/kg, iv; assay type: ADME, organism-based; details: in vivo
[15] = Clearance in cynomolgus monkey at 10 mg/kg, iv; assay type: ADME, organism-based, Macaca fascicularis; details: in vivo
[16] = Displacement of sodium channel site 2 in [3H]Batrachotoxinin from Wistar rat brain membranes after 60 mins; design: species or system Membrane
[17] = molecular target: Sigma intracellular receptor 2 (Homo sapiens) (UniProt Q5BJF2); assay: Antagonist activity at sigma2 receptor (unknown origin) at 25 uM relative to control
Sequence of Sigma intracellular receptor 2 (Homo sapiens) (Q5BJF2 whole entry): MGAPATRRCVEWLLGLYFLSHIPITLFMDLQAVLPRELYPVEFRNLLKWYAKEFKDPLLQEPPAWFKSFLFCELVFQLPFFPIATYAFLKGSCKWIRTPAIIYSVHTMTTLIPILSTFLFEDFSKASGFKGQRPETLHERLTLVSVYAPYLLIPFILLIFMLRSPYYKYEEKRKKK

[18] = Half life in mouse at 10 mg/kg, sc; assay type: ADME, organism-based; details: in vivo
Rattus norvegicus [19] = assay: Acute toxicity in rat at 200 mg/kg using capsitol capsulated formulation; assay type: organism-based; details: in vivo
[20] = molecular target: T1, UDP-3-O-acyl-N-acetylglucosamine deacetylase; assay: Inhibition of LpxC in Pseudomonas aeruginosa isolate 847
[21] = Aqueous solubility of the compound in pH 7.4 buffer; assay type: physicochemical
Mus musculus [22] = assay: Dose normalized AUC in mouse at 10 mg/kg, sc; assay type: ADME, organism-based; details: in vivo
Mus musculus [23] = assay: Dose normalized AUC in mouse at 2 mg/kg, iv; assay type: ADME, organism-based; details: in vivo
Rattus norvegicus [24] = assay: Toxicity in rat at 100 mg/kg, iv administered as bolus dose using 10% capsitol formulation for 7 days; assay type: organism-based; details: in vivo, 168 h
Escherichia coli [25] = assay: Antibacterial activity against Escherichia coli assessed as 2 log reduction in bladder bacterial burden in in-vivo urinary tract infection model; assay type: functional
[26] = Fraction unbound in human plasma at 10 uM by equilibrium dialysis method; assay type: ADME, cell-free
Pseudomonas aeruginosa [27] = assay: Antibacterial activity against Pseudomonas aeruginosa assessed as 3-log reduction in bacterial burden in in-vivo thigh infection model; assay type: functional
[28] = Volume of distribution at steady state in rat at 10 mg/kg, iv; assay type: ADME, organism-based; details: in vivo, read-out: Vdss
[29] = Volume of distribution at steady state in mouse at 2 mg/kg, iv; assay type: ADME, organism-based; details: in vivo, read-out: Vdss
Pseudomonas aeruginosa [30] = assay: Antibacterial activity against Pseudomonas aeruginosa assessed as 3-log reduction in bacterial burden in in-vivo lung infection model; assay type: functional
Rattus norvegicus [31] = organism: Rattus norvegicus; assay: Displacement of sodium channel site 2 in [3H]Batrachotoxinin from Wistar rat brain membranes at 25 uM after 60 mins relative to control; details: Membrane
[32] = molecular target: T3, Muscarinic acetylcholine receptor M2 (Homo sapiens) (UniProt P08172); assay: Antagonist activity at muscarinic M2 receptor (unknown origin) at 25 uM relative to control
T3 sequence (whole entry): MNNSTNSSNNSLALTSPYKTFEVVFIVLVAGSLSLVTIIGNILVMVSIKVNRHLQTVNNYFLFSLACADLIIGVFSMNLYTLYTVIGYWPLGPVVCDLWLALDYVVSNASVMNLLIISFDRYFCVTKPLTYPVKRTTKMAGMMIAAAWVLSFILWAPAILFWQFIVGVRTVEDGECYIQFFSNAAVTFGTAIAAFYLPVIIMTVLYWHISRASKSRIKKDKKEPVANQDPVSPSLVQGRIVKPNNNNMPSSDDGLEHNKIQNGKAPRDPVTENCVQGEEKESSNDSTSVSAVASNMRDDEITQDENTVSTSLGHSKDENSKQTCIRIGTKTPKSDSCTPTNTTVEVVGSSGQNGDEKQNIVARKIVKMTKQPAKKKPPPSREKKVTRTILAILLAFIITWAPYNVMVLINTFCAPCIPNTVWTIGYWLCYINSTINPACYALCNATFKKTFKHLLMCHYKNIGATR

[33] = Half life in mouse at 2 mg/kg, iv; assay type: ADME, organism-based; details: in vivo
[34] = Fraction unbound in cynomolgus monkey plasma at 10 uM by equilibrium dialysis method; assay type: ADME, cell-free, Macaca fascicularis
[35] = Clearance in mouse at 10 mg/kg, sc; assay type: ADME, organism-based; details: in vivo
Pseudomonas aeruginosa [36] = assay: Antibacterial activity against Pseudomonas aeruginosa assessed as reduction in bacterial burden in in-vivo blood infection septicemia model; assay type: functional; details: read-out: PD50
[37] = Fraction unbound in rat plasma at 10 uM by equilibrium dialysis method; assay type: ADME, cell-free
[38] = Half life in cynomolgus monkey at 10 mg/kg, iv; assay type: ADME, organism-based, Macaca fascicularis; details: in vivo
Cynomolgus monkey = assay: Dose normalized AUC in cynomolgus monkey at 10 mg/kg, iv; assay type: ADME, organism-based, Macaca fascicularis; details: in vivo
[39] = Clearance in rat at 10 mg/kg, iv; assay type: ADME, organism-based; details: in vivo
Klebsiella pneumoniae [40] = assay: Antibacterial activity against Klebsiella pneumoniae isolate 21 ATCC 4352; assay type: functional
[41] = Volume of distribution at steady state in cynomolgus monkey at 10 mg/kg, iv; assay type: ADME, organism-based, Macaca fascicularis; details: in vivo, read-out: Vdss

`CC(C)(N)[C@H](NC1COCc2cc(C#Cc3ccc(Cn4ccnc4CO)cc3)ccc21)C(=O)NO` (some centres undefined) showed an MIC (Pseudomonas aeruginosa [1]) of 0.5 µg/mL (≈ 1.02 µM), an MIC (Escherichia coli [2]) of 4 µg/mL (≈ 8.17 µM) and an MIC (Pseudomonas aeruginosa [3]) of 4 µg/mL (≈ 8.17 µM). The MIC (Pseudomonas aeruginosa [4]) was 16 µg/mL (≈ 32.7 µM), the IC50 [5] was 5 nM and the IC50 [6] was 3 nM.

`CC(C)(N)[C@H](NC1COCc2cc(C#Cc3ccc(CN4CCOCC4)cc3)ccc21)C(=O)NO` (some centres undefined) showed an MIC (Pseudomonas aeruginosa [1]) of 0.25 µg/mL (≈ 0.522 µM), an MIC (Escherichia coli [2]) of 0.5 µg/mL (≈ 1.04 µM) and an MIC (Pseudomonas aeruginosa [3]) of 4 µg/mL (≈ 8.36 µM). The MIC (Pseudomonas aeruginosa [4]) was 4 µg/mL (≈ 8.36 µM), the IC50 [5] was 8 nM and the IC50 [6] was 5 nM.

`C[C@@H](O)[C@H](N[C@H]1CCc2cc(C#Cc3ccc(Cn4ccnc4CO)cc3)ccc21)C(=O)NO` showed an MIC (Pseudomonas aeruginosa [1]) of 0.5 µg/mL (≈ 1.09 µM), an MIC (Escherichia coli [2]) of 1 µg/mL (≈ 2.17 µM) and an MIC (Pseudomonas aeruginosa [3]) of 4 µg/mL (≈ 8.69 µM). For the same molecule, the MIC (Pseudomonas aeruginosa [4]) was 4 µg/mL (≈ 8.69 µM), the IC50 [6] was 6 nM and the IC50 [7] was 4 nM.

With `CC(C)(N)[C@H](N[C@H]1CCc2cc(C#Cc3ccc(Cn4ccnc4CO)cc3)ccc21)C(=O)NO` the MIC (Pseudomonas aeruginosa [1]) was 0.125 µg/mL (≈ 0.264 µM), the half-life [8] was 112 min and the ED (Klebsiella pneumoniae [9]) was 2.7 mg/kg. The Activity (Rattus norvegicus [10]) was “Toxic”, the bioavailability [11] was 74% and the MIC (Escherichia coli [2]) was 0.5 to 1 µg/mL (≈ 1.06 to 2.11 µM). The MIC90 (Escherichia coli [2]) was 1 µg/mL (≈ 2.11 µM), the fraction unbound at 10 µM [12] was 0.067 and the AUC/dose (Rattus norvegicus [13]) was 1.07 µg·h/mL/mg/kg. It also gave a clearance [14] of 17.5 mL/min/kg, a clearance [15] of 4.39 mL/min/kg and an IC50 [16] of 400 nM. For the same molecule, the inhibition [17] was greater than 50%, the half-life [18] was 72 min and the Activity (Rattus norvegicus [19]) was “Non-Toxic”. It also gave an IC50 [20] of 2 nM, an MIC (Pseudomonas aeruginosa [3]) of 1 µg/mL (≈ 2.11 µM) and an MIC90 (Pseudomonas aeruginosa [3]) of 4 µg/mL (≈ 8.45 µM). It also gave a solubility [21] of 850 µg/mL (≈ 1790 µM), an AUC/dose (Mus musculus [22]) of 0.7 µg·h/mL/mg/kg and an AUC/dose (Mus musculus [23]) of 0.95 µg·h/mL/mg/kg. For the same molecule, the Activity (Rattus norvegicus [24]) was “Non-Toxic”, the ED (Escherichia coli [25]) was 15.1 mg/kg and the MIC (Pseudomonas aeruginosa [4]) was 4 µg/mL (≈ 8.45 µM). It also gave a fraction unbound at 10 µM [26] of 0.06, an IC50 [5] of 4 nM and an ED (Pseudomonas aeruginosa [27]) of 25 mg/kg. The Vd [28] was 0.68 L/kg, the Vd [29] was 0.4 L/kg and the ED (Pseudomonas aeruginosa [30]) was 32 mg/kg. For the same molecule, the inhibition (Rattus norvegicus [31]) was 97%, the inhibition [32] was greater than 50% and the half-life [33] was 102 min. The fraction unbound at 10 µM [34] was 0.047, the CL/F [35] was 24.4 mL/min/kg and the ED50 (Pseudomonas aeruginosa [36]) was 13 mg/kg. It also gave a fraction unbound at 10 µM [37] of 0.05, a half-life [38] of 392 min and an AUC/dose (Cynomolgus monkey) of 4.07 µg·h/mL/mg/kg. For the same molecule, the clearance [39] was 15.6 mL/min/kg, the IC50 [6] was 4 nM and the MIC (Klebsiella pneumoniae [40]) was 0.125 µg/mL (≈ 0.264 µM). It also gave an MIC90 (Klebsiella pneumoniae [40]) of 8 µg/mL (≈ 16.9 µM) and a Vd [41] of 0.38 L/kg.

With `C[C@@H](O)[C@H](N[C@H]1CCc2cc(C#Cc3ccc(Cn4ccnc4CCO)cc3)ccc21)C(=O)NO` the MIC (Pseudomonas aeruginosa [1]) was 0.125 µg/mL (≈ 0.263 µM), the MIC (Escherichia coli [2]) was 1 µg/mL (≈ 2.11 µM) and the MIC (Pseudomonas aeruginosa [3]) was 4 µg/mL (≈ 8.43 µM). It also gave an MIC (Pseudomonas aeruginosa [4]) of 4 µg/mL (≈ 8.43 µM), an IC50 [5] of 5 nM and an IC50 [6] of 5 nM. For the same molecule, the IC50 [7] was 3 nM.
